# Reference: US5280047A, “2-(4-substituted)phenylmethylene derivatives and methods of use” (G. D. Searle & Co., priority 1993, dated 1994)
# Several values for one entry are separate records, joined by “and”; a condition that tells them apart may be missing. Equal values may be shown once.
# Molecular target: T1, 5-lipoxygenase (Rattus norvegicus, UniProt P12527)
# T1 construct: supernatant fraction of Rat Basophilic Leukemia Cell Homogenate (RBL-1) serves as a 5-lipoxygenase enzyme source; endogenous in cells; host or cells: RBL-1 (rat basophilic leukemia) cells, 100,000 x g supernatant of the homogenate
# T1 sequence (P12527 1-673): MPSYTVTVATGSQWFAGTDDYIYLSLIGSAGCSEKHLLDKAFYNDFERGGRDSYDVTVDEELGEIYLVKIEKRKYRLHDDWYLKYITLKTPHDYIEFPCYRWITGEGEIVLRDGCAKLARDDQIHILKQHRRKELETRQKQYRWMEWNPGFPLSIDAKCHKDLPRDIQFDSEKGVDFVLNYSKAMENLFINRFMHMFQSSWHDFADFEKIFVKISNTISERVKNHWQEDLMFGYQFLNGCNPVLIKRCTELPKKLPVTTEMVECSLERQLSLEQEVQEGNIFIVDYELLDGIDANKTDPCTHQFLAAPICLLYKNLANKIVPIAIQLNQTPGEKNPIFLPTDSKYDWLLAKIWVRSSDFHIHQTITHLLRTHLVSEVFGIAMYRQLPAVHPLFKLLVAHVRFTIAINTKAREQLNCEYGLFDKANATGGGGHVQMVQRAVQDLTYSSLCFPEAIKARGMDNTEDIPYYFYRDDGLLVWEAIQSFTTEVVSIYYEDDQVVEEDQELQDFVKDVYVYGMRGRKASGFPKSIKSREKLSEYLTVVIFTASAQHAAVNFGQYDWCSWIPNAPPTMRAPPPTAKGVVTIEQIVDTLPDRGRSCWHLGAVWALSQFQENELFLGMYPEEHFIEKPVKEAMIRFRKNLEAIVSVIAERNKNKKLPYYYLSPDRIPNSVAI
# Test: Inhibition of 5-lipoxygenase, in vitro (5-HETE synthesis, RBL-1 100,000 x g supernatant)
# Type: biochemical
# Conditions: not given
# Procedure: The compounds of the invention are evaluated with respect to 5-lipoxygenaseinhibition according to the following assay procedure.
# Inhibition of 5-lipoxygenase, in vitro : anti-inflammatory, anti-allergy activities.
# The 100,000 x g supernatant fraction of Rat Basophilic Leukemia Cell Homogenate (RBL-1) serves as a 5-lipoxygenase enzyme source. The enzyme is incubated with [1-^14 C)-arachidonic acid and Ca++ in the presence and absence of test compound. The product of 5-lipoxygenase, 5-hydroxyeicosatetraenoic acid (5-HETE), is separated by thin-layer chromatography and measured by radioactivity.
# When more than one result is listed, this indicates the results from additional tests.
row,Compound,IC50 [µM]
1,"CCCCCCCCc1ccc(/C=C/C(C)=O)cc1 [Example 8, 4-(4-octylphenyl)-3E-buten-2-one]",100

# Same assay, conditions: Rat Basophilic Leukemia Cell Homogenate (RBL-1) supernatant; [1-14C]-arachidonic acid and Ca++; several values = results from additional tests; read-out: 5-Lipoxygenase Inhibition IC50
row,IC50,Compound
1,3 µM and 7.9 µM and 15 µM,"CCCCCCc1ccc(/C=C(\C(C)=O)C(=O)OCC)cc1 [Example 1A, Ethyl 2E-[(4-hexylphenyl)methylene]-3-oxobutanoate]"
2,7.6 µM and 5.9 µM,"CCCCCCc1ccc(/C=C(/C(C)=O)C(=O)OCC)cc1 [Example 1B, Ethyl 2Z-[(4-hexylphenyl)methylene]-3-oxobutanoate]"
3,18 µM,"CCCCCCc1ccc(/C=C(/C(C)=O)C(=O)c2ccccc2)cc1 [Example 2, 2Z-[(4-hexylphenyl)methylene]-1-phenyl-1,3-butanedione]"
4,5.9 µM and 14 µM,"CCCCCCCCc1ccc(/C=C(\C(C)=O)C(=O)OCC)cc1 [Example 3C, Ethyl 2E-[(4-octylphenyl)methylene]-3-oxobutanoate]"
5,4.4 µM,"CCCCCCCCc1ccc(C=C(C(C)=O)C(C)=O)cc1 [Example 5, 3-[(4-octylphenyl)methylene]-2,4-pentanedione]"
6,47 µM,"CCOC(=O)/C(=C/c1ccc(Cl)cc1)C(C)=O [Example 6E, Ethyl 2E-[(4-chlorophenyl)methylene]-3-oxobutanoate]"
7,56 µM,"CCOC(=O)/C(=C\c1ccc(Cl)cc1)C(C)=O [Example 6F, Ethyl 2Z-[(4-chlorophenyl)methylene]-3-oxobutanoate]"
8,74 µM,"CCOC(=O)/C(=C/c1ccc([N+](=O)[O-])cc1)C(C)=O [Example 7G, Ethyl 2E-[(4-nitrophenyl)methylene]-3-oxobutanoate]"
9,78 µM,"CCOC(=O)/C(=C\c1ccc([N+](=O)[O-])cc1)C(C)=O [Example 7H, Ethyl 2Z-[(4-nitrophenyl)methylene]-3-oxobutanoate]"
10,100 µM,"CCCCCCc1ccc(/C=C/C(C)=O)cc1 [Example 9, 4-(4-hexylphenyl)-3E-buten-2-one]"
11,100 µM,"CCCCCCc1ccc(C=C(C(=O)OCC)C(=O)OCC)cc1 [Example 10, Diethyl 2-[(4-hexylphenyl)methylene]propanedioate]"

# Same assay, conditions: at 100 μM; RBL-1 supernatant, 5-HETE synthesis
row,inhibition at 100 µM [%],Compound
1,42,"CCCCCCCCc1ccc(/C=C(/C(C)=O)C(=O)OCC)cc1 [Example 3D, Ethyl 2Z-[(4-octylphenyl)methylene]-3-oxobutanoate]"
2,45.6,"CCCCCCCCc1ccc(C=C(C(=O)OCC)C(=O)OCC)cc1 [Example 4, Diethyl 2-[(4-octylphenyl)methylene]propanedioate]"
